# Reference: patent US20200093838A1, “METHODS FOR TREATING AND PREVENTING ALLERGIES AND ACUTE ALLERGIC RESPONSES” (priority 2015, published 2020)
# Entries after “also recorded” stand apart in the source; their conditions may differ.
# Assays:
# CD8+ T cells [1] = assay: Intracellular staining (flow cytometry) of IFN-γ and IL-13 in CD8+ T cells differentiated in IL-2 or IL-2+IL-4; assay type: cell-based, mouse
# Procedure: (§1) J. Allergy Clin. Immunol. 121, 864-871 e864 (2008)).
# Flow cytometry analyses: For intracellular staining, 1×10^6/ml cells were washed twice with PBS containing 1% BSA, stimulated with 1 μg/ml […] in the presence of 2 μM monensin at 37° C. for 4 hours. After fixation with 4% paraformaldehyde (Electron Microscopy Sciences, Hatfield, Pa.) and permeabilization with 0.1% saponin (Sigma-Aldrich, St. Louis, Mo.), cells were washed twice with PBS containing 1% BSA, then incubated with anti-mouse CD16/CD32 (2.4G2, BD Bioscience, San Jose, Calif.) at 4° C. for 5 minutes, then stained with FITC labeled anti-mouse IFN-γ (XMG 1.2, eBioscience, San Diego, Calif.) and PE-labeled anti-mouse IL-13 (eBio13A, eBioscience, San Diego, Calif.). […] J. Allergy Clin. Immunol. 121, 864-871 e864 (2008)).
# CD8+ T cells [2] = assay: Cell viability (total cell numbers) during CD8+ T cell differentiation; assay type: cell-based, mouse; conditions: IL-2 or IL-2+IL-4; 100 nM or 1 μM; days 0 and 4
# From the text: Data (mean±SEM) are from five experiments. **p<0.01 compared to the IL-2 group on day 4.
# as §1
# Tbx21 = assay: qPCR gene expression of Tbx21 in CD8+ T cells; assay type: cell-based, mouse; conditions: IL-4 and 1,25D3 present during CD8+ T-cell differentiation
# From the text: as §1
# Gata3 = assay: qPCR gene expression of Gata3 in CD8+ T cells; assay type: cell-based, mouse; conditions: IL-4 and 1,25D3 present during CD8+ T-cell differentiation
# From the text: as §1
# Cyp11a1 [3] = assay: qPCR gene expression of Cyp11a1 in CD8+ T cells; assay type: cell-based, mouse; conditions: 100 nM or 1 μM during differentiation in IL-2+IL-4
# From the text: as §1
# Cyp11a1 [4] = assay: CYP11A1 immunoblot analyses of CD8+ T cells; assay type: cell-based, mouse; conditions: 100 nM or 1 μM during differentiation in IL-2+IL-4
# From the text: J. Allergy Clin. Immunol. 121, 864-871 e864 (2008)). […] Samples were run by sodium dodecyl sulfate polyacrylamide gel electrophoresis (SDS-PAGE) and transferred to nitrocellulose membranes. […] Horseradish peroxidase-conjugated anti-rabbit IgG (GE Healthcare, Hertfordshire, UK) was used to detect CYP11A1 protein. Mouse monoclonal anti-β-actin antibody (Sigma-Aldrich, St. Louis, Mo.) was used as an internal control. Immunoreactive bands were quantified by densitometric quantification of autoradiographs using Image J (NIMH, Bethesda, Md.), and expressed as relative CYP11A1 normalized to β-actin (Sigma-Aldrich, St. Louis, Mo.).
# Cyp11a1 [5] = assay: ELISA for pregnenolone in supernatants of CD8+ T cells (CYP11A1 enzymatic activity); assay type: cell-based, mouse; conditions: cells cultured in the presence of 1,25D3 (100 nM or 1 μM)
# From the text: as §1
# [6] = test system: sensitized and challenged CD8-deficient mice; assay: Secondary allergen challenge model with adoptive transfer of 1,25D3-treated CD8+ T cells: airway function (AHR); assay type: in vivo, mouse; conditions: transfer of IL-2-differentiated CD8+ T cells cultured with 1,25D3 (100 nM or 1 μM)
# Procedure: 190, 4056-4065 (2013).; Ohnishi, H., et al. […] J. Allergy Clin. Immunol. 121, 864-871 e864 (2008)) with some modifications. CD8-deficient mice were sensitized with 20 μg of OVA (Calbiochem, La Jolla, Calif.) emulsified in 2.25 mg of alum (AlumImuject; Pierce, Rockford, Ill.) on days 0 and 14 by intraperitoneal injection. […] Omron Healthcare, Kyoto, JP). […] Airway function was measured and samples were collected 48 hours after the secondary challenge. […] Am. J. Respir. Crit. Care Med. 163, 173-184 (2001)). […] J. Allergy Clin. Immunol. 121, 864-871 e864 (2008)) by measuring changes in airway resistance (RL) in response to increasing doses of inhaled methacholine (MCh, Sigma-Aldrich, St. Louis, Mo.). Data were presented as percentage change from the baseline RL values after saline inhalation.
# [7] = test system: sensitized and challenged CD8-deficient mice; assay: Secondary allergen challenge model with adoptive transfer: bronchoalveolar lavage (BAL) fluid analyses; assay type: in vivo, mouse
# Procedure: 190, 4056-4065 (2013).; Ohnishi, H., et al. […] J. Allergy Clin. Immunol. 121, 864-871 e864 (2008)) with some modifications. CD8-deficient mice were sensitized with 20 μg of OVA (Calbiochem, La Jolla, Calif.) emulsified in 2.25 mg of alum (AlumImuject; Pierce, Rockford, Ill.) on days 0 and 14 by intraperitoneal injection. […] Omron Healthcare, Kyoto, JP). […] Airway function was measured and samples were collected 48 hours after the secondary challenge. […] Am. J. Respir. Crit. Care Med. 163, 173-184 (2001)). Bronchoalveolar lavage (BAL) fluid analyses: After measurement of AHR, lungs were lavaged via the tracheal tube with 1 ml of HBSS. […] J. Allergy Clin. Immunol. 121, 864-871 e864 (2008)). […] J. Allergy Clin. Immunol. 121, 864-871 e864 (2008)).
# [8] = test system: sensitized and challenged CD8-deficient mice; assay: Secondary allergen challenge model with adoptive transfer: lung histology (PAS); assay type: in vivo, mouse; conditions: recipients of 1,25D3-treated CD8+ T cells
# Procedure: 190, 4056-4065 (2013).; Ohnishi, H., et al. […] J. Allergy Clin. Immunol. 121, 864-871 e864 (2008)) with some modifications. CD8-deficient mice were sensitized with 20 μg of OVA (Calbiochem, La Jolla, Calif.) emulsified in 2.25 mg of alum (AlumImuject; Pierce, Rockford, Ill.) on days 0 and 14 by intraperitoneal injection. […] Omron Healthcare, Kyoto, JP). […] Airway function was measured and samples were collected 48 hours after the secondary challenge. […] Am. J. Respir. Crit. Care Med. 163, 173-184 (2001)). Lung histology: […] Paraffin sections (5-μm thick) were stained with periodic acid-Schiff (PAS).
# [9] = test system: CD4+ T cells from steroid-resistant asthmatics; conditions: 500 nM; cited from earlier work
# Cyp11a1 [10] = conditions: inhibition of the enzymatic activity of CYP11A1; cited from earlier work
# [11] = test system: sensitized and challenged CD8-deficient mice; conditions: inhibition of the enzymatic activity of CYP11A1; cited from earlier work
# [12] = IL-2 + IL-4 + TCR + VitD (100 nM)
# [13] = IL-2 + IL-4 + TCR + VitD (100 nM), listed as VitD
# [14] = IL-2 + IL-4 + TCR + VitD (1 μM)
# [15] = cultured with SIINFEKL and IL-2+IL-4, 1,25D3 100 nM, 1 μM during differentiation
# [16] = compared to recipients of untreated cells, 1,25D3 100 nM or 1 μM
compound,measurement,setting,value
"C=C1/C(=C\C=C2/CCC[C@]3(C)[C@@H]([C@H](C)CCCC(C)(C)O)CC[C@@H]23)C[C@@H](O)C[C@@H]1O [1,25D3, 1,25-dihydroxy vitamin D3]",cytokine profiles (IFN-γ and IL-13) of differentiated CD8+ T cells,"CD8+ T cells [1]; 1,25D3 (100 nM or 1 μM) added only during antigen (SIINFEKL) re-stimulation phase, last 4 hours, IL-2+IL-4",does not alter; also recorded: unaffected
same,"% of positive cells, IFN-γ+",CD8+ T cells [1]; [12],24.5±4.8%
same,"% of positive cells, IFN-ν+ IL-13+",CD8+ T cells [1]; [12],4%
same,"% of positive cells, IFN-ν− IL-13−",CD8+ T cells [1]; [12],55.1%
same,"% of positive cells, IL-13+",CD8+ T cells [1]; [12],11.3±4.8%
same,"% of positive cells, IFN-γ+",CD8+ T cells [1]; [13],24.5%
same,"% of positive cells, IL-13+",CD8+ T cells [1]; [13],11.3%
same,"% of positive cells, IFN-γ+",CD8+ T cells [1]; [14],30.6%
same,"% of positive cells, IFN-ν+ IL-13+",CD8+ T cells [1]; [14],3.5%
same,"% of positive cells, IFN-ν− IL-13−",CD8+ T cells [1]; [14],53.9%
same,"% of positive cells, IL-13+",CD8+ T cells [1]; [14],8.3%
same,"% of positive cells, IFN-γ+",CD8+ T cells [1]; IL-2 + IL-4 + VitD (100 nM),2.2%
same,"% of positive cells, IFN-ν+ IL-13+",CD8+ T cells [1]; IL-2 + IL-4 + VitD (100 nM),0.2%
same,"% of positive cells, IFN-ν− IL-13−",CD8+ T cells [1]; IL-2 + IL-4 + VitD (100 nM),92.7%
same,"% of positive cells, IL-13+",CD8+ T cells [1]; IL-2 + IL-4 + VitD (100 nM),4.6%
same,"% of positive cells, IFN-γ+",CD8+ T cells [1]; IL-2 + IL-4 + VitD (1 μM),2.7%
same,"% of positive cells, IFN-ν+ IL-13+",CD8+ T cells [1]; IL-2 + IL-4 + VitD (1 μM),0.2%
same,"% of positive cells, IFN-ν− IL-13−",CD8+ T cells [1]; IL-2 + IL-4 + VitD (1 μM),92.9%
same,"% of positive cells, IL-13+",CD8+ T cells [1]; IL-2 + IL-4 + VitD (1 μM),3.8%
same,"% of positive cells, IFN-γ+",CD8+ T cells [1]; IL-2 + TCR + VitD (100 nM),76.8%
same,"% of positive cells, IFN-ν+ IL-13+",CD8+ T cells [1]; IL-2 + TCR + VitD (100 nM),0.4%
same,"% of positive cells, IFN-ν− IL-13−",CD8+ T cells [1]; IL-2 + TCR + VitD (100 nM),22.6%
same,"% of positive cells, IL-13+",CD8+ T cells [1]; IL-2 + TCR + VitD (100 nM),0.1%
same,"% of positive cells, IFN-γ+",CD8+ T cells [1]; IL-2 + TCR + VitD (1 μM),76.2%
same,"% of positive cells, IFN-ν+ IL-13+",CD8+ T cells [1]; IL-2 + TCR + VitD (1 μM),0.4%
same,"% of positive cells, IFN-ν− IL-13−",CD8+ T cells [1]; IL-2 + TCR + VitD (1 μM),23.7%
same,"% of positive cells, IL-13+",CD8+ T cells [1]; IL-2 + TCR + VitD (1 μM),0.1%
same,"% of positive cells, IFN-γ+",CD8+ T cells [1]; IL-2 + VitD (100 nM),3.1%
same,"% of positive cells, IFN-ν+ IL-13+",CD8+ T cells [1]; IL-2 + VitD (100 nM),0%
same,"% of positive cells, IFN-ν− IL-13−",CD8+ T cells [1]; IL-2 + VitD (100 nM),96.8%
same,"% of positive cells, IL-13+",CD8+ T cells [1]; IL-2 + VitD (100 nM),0.2%
same,"% of positive cells, IFN-γ+",CD8+ T cells [1]; IL-2 + VitD (1 μM),4.3%
same,"% of positive cells, IFN-ν+ IL-13+",CD8+ T cells [1]; IL-2 + VitD (1 μM),0%
same,"% of positive cells, IFN-ν− IL-13−",CD8+ T cells [1]; IL-2 + VitD (1 μM),95.8%
same,"% of positive cells, IL-13+",CD8+ T cells [1]; IL-2 + VitD (1 μM),0.2%
same,IFN-γ+ cells (change),CD8+ T cells [1]; [15],increase
same,percentage of IL-13+ cells (change),CD8+ T cells [1]; [15],dose-dependent decrease
same,IFN-γ-producing capacity of Tc1 cells,"CD8+ T cells [1]; differentiated in IL-2 alone, 1,25D3 added during differentiation",not affected
same,effect on cell viability,CD8+ T cells [2],not altered; also recorded: no significant effect
same,Tbx21 gene expression,Tbx21,only marginally altered; also recorded: affected
same,Gata3 gene expression,Gata3,only marginally altered; also recorded: affected
same,CYP11A1 transcript levels,Cyp11a1 [3],decreased
same,CYP11A1 protein levels,Cyp11a1 [4],decreased
same,pregnenolone levels in supernatants (CYP11A1 enzymatic activity),Cyp11a1 [5],markedly reduced; also recorded: decreased
same,airway hyperresponsiveness (AHR),[6],fails to induce; also recorded: failed to restore
same,IL-4 level in BAL fluid,[7]; [16],decreased; also recorded: significantly lower
same,IL-5 level in BAL fluid,[7]; [16],decreased; also recorded: significantly lower
same,IL-13 level in BAL fluid,[7]; [16],decreased; also recorded: significantly lower
same,airway inflammation (cell composition in BAL fluid),"[7]; transfer of IL-2-differentiated CD8+ T cells cultured with 1,25D3 (100 nM or 1 μM)",failed to restore
same,inflammation in lung sections,[8],less inflammation
same,numbers of PAS+ mucus-containing goblet cells,[8],prevents; also recorded: significantly decreased numbers
same,in vitro effectiveness in CD4+ T cells from steroid-resistant asthmatics,[9],effective
"CCC1(c2ccc(N)cc2)CCC(=O)NC1=O (stereo not drawn) [AMG, aminoglutethimide]",conversion of CD8+ T cells to IL-13 production,Cyp11a1 [10],inhibitory effects
same,lung allergic responses in sensitized and challenged CD8-deficient mice,[11],failure to restore
